Article PMC11597625, “Mutational Analysis of Substrate Recognition in Trypsin-like Protease Cocoonase: Protein Memory Induced by Alterations in Substrate-Binding Site” (Molecules, 2024)

Target: T1, CCN′ ([K63G,K131G,K133A]-CCN, degradation-suppressed cocoonase) (Bombyx mori, UniProt A7TVD3, K85G/K153G/K155A)
T1 construct: mature enzyme, propeptide removed (precursors carried K8D or K8D/E10D/E11D in the propeptide)
Assay: BAEE hydrolysis assay
Format: biochemical
Conditions: assay conditions not described

T1 sequence (A7TVD3 entry or part of it K85G/K153G/K155A): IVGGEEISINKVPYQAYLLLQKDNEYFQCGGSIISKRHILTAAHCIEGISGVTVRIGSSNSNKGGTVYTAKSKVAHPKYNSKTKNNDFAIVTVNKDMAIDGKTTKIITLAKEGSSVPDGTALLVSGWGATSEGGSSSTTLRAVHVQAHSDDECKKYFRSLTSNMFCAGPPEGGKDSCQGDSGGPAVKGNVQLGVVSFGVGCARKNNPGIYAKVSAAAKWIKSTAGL

Compound: CCOC(=O)[C@H](CCCNC(=N)N)NC(=O)c1ccccc1 [BAEE]
- Km: 372 µM
